{"source": "patent US8333987B2", "about": "(priority 2008, dated 2012)", "key": {"[1]": {"experiment": "Water solubility of cyclocreatine", "assay_type": "physicochemical", "details": "physiologically relevant zwitterion salt", "protocol": "Therefore, sufficient drug is available in the gut lumen due to good solubility, but an absorptive transporter will be necessary to overcome the poor permeability characteristics of this compound. For effective therapy, it is necessary to deliver cyclocreatine effectively in sufficient quantities into the systemic blood stream. […] Moreover, the in vivo fate of a drug given by a particular administration route is determined by both the physicochemical properties of drug and the anatomical and physiological characteristics of the body. Most conventional drugs, once reaching the blood circulation, distribute freely throughout the body and show relatively even tissue distribution due to their low molecular weight."}, "[2]": {"details": "organic solvents administered parenterally; cited from earlier work"}, "Nourin [3]": {"test_system": "Nourin", "experiment": "Chemotactic activity of Nourin in supernatants of H1N1 (PR8) infected MDCK cells", "assay_type": "cell-based", "details": "5×10^−6 M Nourexin-4, all time points 1-24 hours, FIG. 5"}, "Nourin [4]": {"test_system": "Nourin", "experiment": "Neutrophil chemotaxis induced by Nourin", "assay_type": "cell-based", "details": "data not provided in graphical form"}, "[5]": {"test_system": "human peripheral neutrophils", "details": "FIG. 3", "excerpt": "(§1) For these studies, a standard Neuroprobe chemotaxis system (Gaithersburg, Md.) and human peripheral neutrophils as indicator cells were used."}, "Nourin [6]": {"test_system": "Nourin", "experiment": "Chemotactic activity in serum of H1N1 (WSN) influenza infected mice, human PMNs as indicator cells", "assay_type": "cell-based, mouse", "details": "5×10^−6 M Nourexin-4; serum diluted 1/7, 6 hours post H1N1 (WSN) infection; FIG. 6"}, "[7]": {"test_system": "human peripheral neutrophils", "details": "FIG. 2", "excerpt": "as §1"}}, "note": "Where two headings read alike, the source gives them in different places.", "data": [{"molecule": "NC1=NCCN1CC(=O)O", "note": "[cyclocreatine]", "values": [{"measurement": "water solubility", "setting": "[1]", "value": "relatively highly water-soluble"}]}, {"molecule": "CC(O)CO", "note": "(stereo not shown) [propylene glycol]", "values": [{"measurement": "LD50", "setting": "[2]", "value": 5.7, "unit": "%"}]}, {"molecule": "C/C=C/C[C@@H](C)[C@@H](O)[C@H]1C(=O)N[C@@H](CC)C(=O)N(C)CC(=O)N(C)[C@@H](CC(C)C)C(=O)N[C@@H](C(C)C)C(=O)N(C)[C@@H](CC(C)C)C(=O)N[C@@H](C)C(=O)N[C@H](C)C(=O)N(C)[C@@H](CC(C)C)C(=O)N(C)[C@@H](CC(C)C)C(=O)N(C)[C@H](C(C)C)C(=O)N1C", "note": "[Nourexin-4, Cyclosporine H]", "values": [{"measurement": "inhibition of chemotactic activity of H1N1 infected MDCK supernatant", "setting": "Nourin [3]; 1/10 diluted supernatant", "value": "dramatic loss of chemotactic activity"}, {"measurement": "inhibition of chemotactic activity of H1N1 infected MDCK supernatant", "setting": "Nourin [3]; undiluted supernatant", "value": "dramatic loss of chemotactic activity"}, {"measurement": "inhibition of neutrophil chemotaxis induced by Nourin", "setting": "Nourin [4]", "value": "significantly inhibited"}, {"measurement": "inhibition of neutrophil chemotaxis induced by S. aureus-derived PSM3a", "setting": "[5]; Nourexin-4 at 5×10^−4 M", "value": "completely blocked"}, {"measurement": "inhibition of neutrophil chemotaxis induced by S. aureus-derived PSM3a", "setting": "[5]; Nourexin-4 at 5×10^−5 M", "value": "partially blocked"}, {"measurement": "inhibition of virus induced LCF activity in mouse serum", "setting": "Nourin [6]", "value": "majority of this virus induced LCF activity is clearly inhibited"}]}, {"molecule": "t-Boc-FLFLF [Nourexin-1]", "values": [{"measurement": "inhibition of neutrophil chemotaxis induced by Nourin", "setting": "Nourin [4]", "value": "significantly inhibited"}]}, {"molecule": "CCO", "note": "[ethanol]", "values": [{"measurement": "LD50", "setting": "[2]", "value": 21, "unit": "%"}]}, {"molecule": "C[S+](C)[O-]", "note": "[DMSO, dimethylsulfoxide]", "values": [{"measurement": "LD50", "setting": "[2]", "value": 5.1, "unit": "%"}]}, {"molecule": "phenol-soluble modulin 3a peptide [PSM3a, reference compound]", "values": [{"measurement": "neutrophil chemotactic activity induced in vitro", "setting": "[5]", "value": "strong neutrophil chemotactic activity"}]}, {"molecule": "formyl-Methionine-Leucine-Phenylalanine [f-MLP]", "values": [{"measurement": "neutrophil chemotactic activity induced in vitro", "setting": "[7]", "value": "strong neutrophil chemotactic activity"}]}]}
